For assay [1], the system named is Saccharomyces cerevisiae. Description: DNA damaging activity against DNA repair-deficient RS 322YK (rad 52Y) yeast assessed as drug level required to produce 12 mm zone of inhibition. It counts as functional.
Assay [2] concerns Vero. Description: Cytotoxicity against african green monkey Vero cells. It counts as cell-based. As to conditions: Chlorocebus sabaeus.
The test system of assay [3] is Saccharomyces cerevisiae. Description: DNA damaging activity against RS 188N (RAD+) yeast assessed as drug level required to produce 12 mm zone of inhibition. It is filed as functional.

≈ marks a conversion by molar mass, not a printed value.

By IC50 is commonly meant the point on the concentration scale where inhibition reaches its midpoint. Consider `C=C1[C@@H]([C@@]2(C)[C@@H](OC(C)=O)C[C@@]3(O)OC[C@](C)(O3)[C@@H]2CC(=O)OC)[C@@H](OC=O)[C@H](OC(=O)C(O)C(C)CC)[C@@]2(C)[C@H](c3ccoc3)CC(=O)[C@]12O` (stereo not given in full), for which the IC12 in assay [1] turned out to be 0.9 µg/mL; in assay [3], 100 µg/mL. In assay [2], this molecule showed an IC50 of 12 µg/mL (≈ 16.6 µM).

Take `CC[C@@]1(O)C(=O)OCc2c1cc1n(c2=O)Cc2cc3ccccc3nc2-1` [CAMPTOTHECIN]: the IC12 in assay [1] turned out to be 0.6 µg/mL; in assay [3], 110 µg/mL.
